Assay results taken from article PMC5215691 (2017).

Key:
[1] = test system: FAM-labeled KBA 3-1 (DNA, aptamer) CGGAAGCGCGCCACCCCATCGGCGGGCGCGAAGCTTGCG; experiment: RGO fluorescence quenching/recovery; conditions: 1X PBS pH 8.5, room temperature, 100 nM aptamer, 0.1 mg/mL RGO
[2] = test system: KBA 2 (DNA, aptamer) ATGCGGATCCCGCGCGACCAACGGAAGCGCGCCACCCCATCGGCGGCGCGAAGCTTGCGC; experiment: ELONA (biotin-aptamer, streptavidin-HRP); conditions: for binding: immobilised compound, 1 μM aptamer
[3] = test system: KBA 3-1 (DNA, aptamer) CGGAAGCGCGCCACCCCATCGGCGGGCGCGAAGCTTGCG; experiment: ELONA (biotin-aptamer, streptavidin-HRP); conditions: for binding: immobilised compound, 1 μM aptamer
[4] = test system: KBA 2-2 (DNA, aptamer) CGCCACCCCATCGGCGGCG; experiment: ELONA (biotin-aptamer, streptavidin-HRP); conditions: not given; 1X PBS/PBST (concentrations not given); immobilised compound (amide bond on NOS plate); apparent
[5] = test system: KBA 1-2 (DNA, aptamer) CGCGCCGACGTCAGAGAGGCGCG; experiment: ELONA (biotin-aptamer, streptavidin-HRP); conditions: not given; 1X PBS/PBST (concentrations not given); immobilised compound (amide bond on NOS plate); apparent
[6] = test system: KBA 3 (DNA, aptamer) ATGCGGATCCCGCGCACCAACGGAAGCGCGCCACCCCATCGGCGGGCGCGAAGCTTGCGC; experiment: ELONA (biotin-aptamer, streptavidin-HRP); conditions: not given; 1X PBS/PBST (concentrations not given); immobilised compound (amide bond on NOS plate); apparent
[7] = test system: KBA 2-1 (DNA, aptamer) CGGAAGCGCGCCACCCCATCGGCGGCGCGAAGCTTGCG; experiment: ELONA (biotin-aptamer, streptavidin-HRP); conditions: not given; 1X PBS/PBST (concentrations not given); immobilised compound (amide bond on NOS plate); apparent
[8] = test system: KBA 3-2 (DNA, aptamer) CGCCACCCCATCGGCGGGCG; experiment: ELONA (biotin-aptamer, streptavidin-HRP); conditions: not given; 1X PBS/PBST (concentrations not given); immobilised compound (amide bond on NOS plate); apparent
[9] = test system: KBA 1 (DNA, aptamer) ATGCGGATCCCGCGCCGACGTCAGAGAGGCGCGCTGGTTTGCACCGCGCGAAGCTTGCGC; experiment: ELONA (biotin-aptamer, streptavidin-HRP); conditions: not given; 1X PBS/PBST (concentrations not given); immobilised compound (amide bond on NOS plate); apparent
[10] = test system: KBA 1-1 (DNA, aptamer) ATGCGGATCCCGCGCCGACGTCAGAGAGGCGCGCTGGTTTGCAC; experiment: ELONA (biotin-aptamer, streptavidin-HRP); conditions: not given; 1X PBS/PBST (concentrations not given); immobilised compound (amide bond on NOS plate); apparent
[11] = not given, 1X PBS/PBST (concentrations not given), immobilised compound (amide bond on NOS plate), apparent

Row | SMILES | binding [2] | binding [3] | binding ([1]; 1 μM antibiotic) | further results
1 | CC1(C)S[C@@H]2[C@H](NC(=O)[C@H](N)c3ccccc3)C(=O)N2[C@H]1C(=O)O | weak | weak |  | binding ([1]; 1 μM ampicillin): no
2 | CN(C)[C@@H]1C(=O)C(C(N)=O)=C(O)[C@@]2(O)C(=O)C3=C(O)c4c(O)cccc4[C@@](C)(O)[C@H]3C[C@@H]12 | weak | weak | weak | 
3 | CN[C@@H]1[C@H](O[C@H]2[C@H](O[C@H]3[C@H](O)[C@@H](O)[C@H](N=C(N)N)[C@@H](O)[C@@H]3N=C(N)N)O[C@@H](C)[C@]2(O)C=O)O[C@@H](CO)[C@H](O)[C@H]1O | weak | weak | weak | 
4 | CN[C@@H]1[C@H](O[C@H]2[C@H](O[C@H]3[C@H](O)[C@@H](O)[C@H](N=C(N)N)[C@@H](O)[C@@H]3N=C(N)N)O[C@@H](C)[C@]2(O)CO)O[C@@H](CO)[C@H](O)[C@H]1O | weak | weak | weak | 
5 | NC[C@H]1O[C@H](O[C@H]2[C@H](O)[C@@H](O[C@H]3O[C@H](CO)[C@@H](O)[C@H](N)[C@H]3O)[C@H](N)C[C@@H]2N)[C@H](O)[C@@H](O)[C@@H]1O |  |  |  | Kd^app [4]: 564 ± 92.5 nM; binding ([1]; 1 pM to 1 μM kanamycin): yes; Kd^app [5]: 669 ± 10.7 nM; Kd^app [6]: 341 ± 12.8 nM; Kd^app [2, 11]: 34.7 ± 35.6 nM; Kd^app [7]: 182 ± 57.2 nM; Kd^app [8]: 239 ± 52.5 nM; Kd^app [9]: 268 ± 20.8 nM; Kd^app [3, 11]: 92.3 ± 29.1 nM; Kd^app [10]: 268 ± 26.7 nM
